As a reminder, the pIC50 is −log10 of the IC50, conventionally taken in molar units. A higher pIC50 goes with a small IC50.

pIC50: −log10 of the molar value.

IC50 data for 7 compounds are collected here from BindingDB's records for doi:10.1016/j.bioorg.2016.08.011 (Recep Tayyip Erdogan University, 2016).

Alpha-glucosidase MAL12, sequence (P53341 whole entry): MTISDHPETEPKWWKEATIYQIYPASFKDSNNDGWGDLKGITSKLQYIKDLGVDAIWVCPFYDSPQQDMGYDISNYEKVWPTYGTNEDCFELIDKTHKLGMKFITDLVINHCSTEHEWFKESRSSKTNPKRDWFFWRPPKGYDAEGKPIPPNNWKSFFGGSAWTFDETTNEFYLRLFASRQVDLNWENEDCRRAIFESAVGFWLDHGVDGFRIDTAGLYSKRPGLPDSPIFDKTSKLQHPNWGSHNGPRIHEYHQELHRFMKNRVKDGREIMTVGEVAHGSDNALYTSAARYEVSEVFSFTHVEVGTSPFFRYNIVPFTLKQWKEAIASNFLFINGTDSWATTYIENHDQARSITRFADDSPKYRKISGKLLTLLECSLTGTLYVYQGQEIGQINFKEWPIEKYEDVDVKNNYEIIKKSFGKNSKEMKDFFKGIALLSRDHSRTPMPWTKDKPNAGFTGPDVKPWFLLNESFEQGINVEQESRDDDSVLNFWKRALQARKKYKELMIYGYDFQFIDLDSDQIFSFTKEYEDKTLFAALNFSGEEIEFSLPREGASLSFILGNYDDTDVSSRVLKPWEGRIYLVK

For the assay, the target named is Alpha-glucosidase MAL12 (Saccharomyces cerevisiae (strain ATCC 204508 / S288c), UniProt P53341). The experiment in a line: α-Glucosidase inhibition assay. The settings on record: pH 6.8. On the procedure:
α-Glucosidase inhibition assay was performed spectrophotometrically. α-Glucosidase from Saccharomyces cerevisiae (Sigma-Aldrich) was dissolved in phosphate buffer (pH 6.8, 50 mM). Test compounds were dissolved in DMSO. In 96-well microtiter plates, 20 µL of test sample, 20 µL of enzyme (20 mU/mL) and 135 µL of buffer were added and incubated for 15 min at 37 °C. After incubation, 25 µL of p-nitrophenyl-α-D-glucopyranoside (2 mM, Sigma Aldrich) was added and change in absorbance was monitored for 20 min at 400 nm. Test compound was replaced by DMSO (10% final) as control. […] The assays were done in triplicate.
For the compound `O=[N+]([O-])c1ccc2nc(Cc3ccc(Cl)cc3Cl)n(Cc3nnc(S)o3)c2c1` [5-{[2-(2,4-Dichlorobenzyl)-6-nitro-1H-benzimidazol-1-yl]methyl}-1,3,4-oxadiazole-2-thiol (5b)], the negative-log IC50 (pIC50) is 4.57. Turning to `Sc1nnc(Cn2c(Cc3ccc(Cl)cc3Cl)nc3ccccc32)o1` [5-{[2-(2,4-Dichlorobenzyl)-1H-benzimidazol-1-yl]methyl}-1,3,4-oxadiazole-2-thiol (5a)], the pIC50 was 3.60. `O=C(Cn1c(Cc2ccc(Cl)cc2Cl)nc2ccccc21)NNC(=S)Nc1ccccc1` [2-{[2-(2,4-Dichlorobenzyl)-1H-benzimidazol-1-yl]acetyl}-N-phenylhydrazinecarbothioamide (6a)]: the pIC50 is 3.85.

`NNC(=O)Cn1c(Cc2ccc(Cl)cc2Cl)nc2ccc([N+](=O)[O-])cc21` [2-[2-(2,4-Dichlorobenzyl)-6-nitro-1H-benzimidazol-1-yl]acetohydrazide (4b)] gave a pIC50 of 4.98. The compound `Clc1ccc(Cc2nc3ccccc3n2Cc2nnc(Nc3ccccc3)s2)c(Cl)c1` [5-{[2-(2,4-Dichlorobenzyl)-1H-benzimidazol-1-yl]methyl}-N-phenyl-1,3,4-thiadiazol-2-amine (8a)] had a pIC50 of 3.80.

As to `O=C(Cn1c(Cc2ccc(Cl)cc2Cl)nc2ccc([N+](=O)[O-])cc21)NNC(=S)Nc1ccccc1` [2-{[2-(2,4-Dichlorobenzyl)-6-nitro-1H-benzimidazol-1-yl]acetyl}-N-phenyl hydrazinecarbothioamide (6b)], the pIC50 was 4.03. Compound `O=[N+]([O-])c1cccc2nc(Cc3ccc(Cl)cc3Cl)n(Cc3nnc(S)n3-c3ccccc3)c12` [5-{[2-(2,4-Dichlorobenzyl)-7-nitro-1H-benzimidazol-1-yl]methyl}-4-phenyl-4H-1,2,4-triazole-3-thiol (7b)] showed a pIC50 of 4.39.
